The subject of data set [1] is LP-1 cell line (DSMZ no.: ACC 41) derived from human multiple myeloma. Description: Cell-based pERK ELISA in LP-1 cells. To be noted: LP-1, FGF-1/Heparin stimulated, for the 1 μM bound: or at least 50% inhibition at a concentration of 1 μM. As to the method:
Enzyme buffer A: 8 mM MOPS, pH 7.0, 0.2 mM EDTA, 10 mM MgAcetate Enzyme buffer B: 8 mM MOPS, pH 7.0, 0.2 mM EDTA, 2.5 mM MnCl2, 10 mM MgAcetate Enzyme buffer C: 8 mM Mops, pH 7.0, 0.2 mM EDTA, 10 mM MnCl2, 10 mM MgAcetate. Cell-Based pERK ELISA Method
LP-1 or JIM-1 multiple myeloma cells were seeded in 96 well plates at 1×10^6 cells/ml in 200 ul per well in serum free media. HUVEC cells were seeded at 2.5×10^5 cells/ml and allowed to recover for 24 h prior to transfer to serum free media. Cells were incubated for 16 h at 37° C. prior to the addition of a test compound for 30 minutes. Test compounds were administered at a 0.1% final DMSO concentration. Following this 30 minute incubation a FGF-1/Heparin (FGF-1 at 100 ng/ml final and Heparin at 100 ug/ml) mixture or VEGF^165 (100 ug/ml) was added to each of the wells for a further 5 minutes. The media was removed and 50 ul ERK ELISA lysis buffer (R and D Systems DuoSet ELISA for pERK and Total ERK #DYC-1940E, DYC-1018E) added. ELISA plates and standards were prepared according to the standard DuoSet protocols and the relative amounts of pERK to total ERK in each sample calculated according to the standard curve.
In particular, compounds of the invention were tested against the LP-1 cell line (DSMZ no.: ACC 41) derived from human multiple myeloma.

Data set [2] concerns Ba/F3-TEL-FGFR3 cell line. Nature of the data set: Ba/F3-TEL-FGFR3 cell proliferation assay. It counts as cell-based. The following applies: 72 hours, Alamar Blue; read-out: IC50 against Ba/F3-TEL-FGFR3 cell line. Here is the method:
Ba/F3-TEL-FGFR3 & Ba/F3 (WT) Cell Proliferation Assays
Stably transfected Ba/F3-TEL-FGFR3 cells were plated out into black 96-well tissue culture plates with clear bottoms in RPMI medium containing 10% FBS and 0.25 mg/ml G418 at a density of 5×10^3 cells/well (200 μl per well). The parental wild-type Ba/F3 cells (DSMZ no.: ACC 300) were plated out into black 96-well tissue culture plates with clear bottoms in RPMI medium containing 10% FBS and 2 ng/ml mouse IL-3 (R&D Systems) at a density of 2.5×10^3 cells/well (200 μl per well). Plates were placed in an incubator overnight before adding the compounds the following day. Dilutions of compounds were made in DMSO starting at 10 mM and were diluted into the wells to give a final DMSO concentration of 0.1% in assay. Compounds were left on the cells for 72 hours before the plates were removed from the incubator and 20 μl of Alamar Blue™ (Biosource) was added to each well. Plates were placed in the incubator for 4-6 hours before reading plates at 535 nm (excitation)/590 nm (emission) on a Fusion plate reader (Packard).
In particular, compounds of the invention were tested against the Ba/F3-TEL-FGFR3 cell line.
Background: Alamar Blue is a resazurin reagent that responds to reducing activity.

These results are taken from US8859583B2, “Bicyclic heterocyclic compounds as protein tyrosine kinase inhibitors” (Astex Therapeutics Limited, priority 2007, dated 2014).

Structures can show the parent of a compound that is named as a salt.

`CC(CO)NC(=O)c1ccn2c(-c3cccc(NC(=O)NCC(F)(F)F)c3)cnc2c1` (stereo not shown) [Example 17, 3-{3-[3-(2,2,2-Trifluoro-ethyl)-ureido]-phenyl}-imidazo[1,2-a]pyridine-7-carboxylic acid (2-hydroxy-1-methyl-ethyl)-amide] came in with an IC50 in data set [1] of under 20 µM. One may read the melting point as the temperature, or range, at which the solid turns liquid. As to `Cn1cncc1CNC(=O)c1ccn2c(-c3cccc(NC(=O)NCC(F)(F)F)c3)cnc2c1` [Example 20, 3-{3-[2,2,2-Trifluoro-ethyl)-ureido]-imidazo[1,2-a]pyridine-7-[5-(1-N-methyl-imidazole)]-methylamide], the melting point was over 260 °C. In the case of `O=C(NCC(F)(F)F)Nc1cccc(-c2cnc3cc(C(=O)NCCCc4cnc[nH]4)ccn23)c1` [Example 19, 3-{3-[2,2,2-Trifluoro-ethyl)-ureido]-imidazo[1,2-a]pyridine-7-[3-(1H-imidazol-4-yl)]-propanamide], the melting point was 170 °C. As to `O=C(NCC(F)(F)F)Nc1cccc(-c2cnc3cc(C(=O)N4CCC(O)C4)ccn23)c1` (stereo not shown) [Example 7, 1-{3-[7-(3-Hydroxy-pyrrolidine-1-carbonyl)-imidazo[1,2-a]pyridin-3-yl]-phenyl}-3-(2,2,2-trifluoro-ethyl)-urea], the IC50 in data set [1] was under 20 µM. In data set [1], `CNC(=O)c1ccn2c(-c3cccc(NC(=O)NCC(F)(F)F)c3)cnc2c1` [Example 2, 3-[3-[3-(2,2,2-Trifluoroethyl)ureido]-phenyl}imidazo[1,2-a]pyridine-7-carboxylic acid methylamide] displayed an IC50 of under 20 µM.

Regarding `CN(C)C(=O)c1ccn2c(-c3cccc(NC(=O)NCC(F)(F)F)c3)cnc2c1` [Example 1, 3-[3-[3-(2,2,2-Trifluoroethyl)ureido]-phenyl}imidazo[1,2-a]pyridine-7-carboxylic acid dimethylamide Hydrochloride], the IC50 in data set [2] was under 20 µM. With `Cn1cncc1NC(=O)c1ccn2c(-c3cccc(NC(=O)NCC(F)(F)F)c3)cnc2c1` [Example 18, 3-{3-[2,2,2-Trifluoro-ethyl)-ureido]-imidazo[1,2-a]pyridine-7-[5-(1-N-methyl-imidazole)]-amide], the melting point worked out at 260 °C.
